In US20240174680A1, “CDK2 INHIBITORS AND METHODS OF USING THE SAME” (Cedilla Therapeutics, Inc., priority 2021, published 2024) one finds IC50 data, which are given here for 14 compounds.

In test [1] the test system is Kuramochi cells labeled with mApple-H2B. Put plainly: IncuCyte cell proliferation assay. To be noted: 72 hours. The test is classed as cell-based. As to the method:
IncuCyte® assay was used to measure the effect of disclosed compounds on cell proliferation. Fluorescent microscopy images of cells were taken immediately after compound treatment and 72 hours later. Image analysis software was used to obtain cell counts as a function of compound concentration. Kuramochi cells labeled with mApple-H2B were seeded on 384-well assay-ready plates. Plates were placed in an IncuCyte® (Sartorius) and scanned at 0 and 72 hours. IncuCyte® software was used to count the number of fluorescent nuclei in each well. The fold change in cell count from 0 to 72 hours in wells treated with increasing compounds concentrations (10 pts, 1/2 log dilution, 20 μM top concentration) was normalized to DMSO control wells. The normalized cell counts were fit with dose response curves and a […] was calculated.
Compounds with an ICp greater than 0.5 μM and less than or equal to 5.0 μM are designated as “B”.

For a further test, the system named is Kuramochi cells. Put plainly: BrdU cell proliferation assay (colorimetric ELISA). It counts as cell-based. To be noted: read-out: BrdU - KURAMOCHI.1: IC50. As to the method:
A BrdU assay was used as a measure of proliferation based on the DNA replication process of proliferating cells. BrdU, a pyrimidine analog, is added to the cell culture and incorporated into the DNA of proliferating cells. The presence of the BrdU analog was then measured through a colorimetric ELISA. After fixation and permeabilization of cells, peroxidase-conjugated antibody recognizing BrdU is added and allowed to incubate, followed by thorough washing to remove unbound antibody. In order to quantify the amount of bound antibody, peroxidase substrate is added and produces a color that can be measured at 450 nm.
On day −1, Kuramochi cells (Sekisui XenoTech JCRB0098) were seeded at 2,000 cells/well in columns 2-12 of a 96 well plate (Corning, CLS3596) in 150 μL media and allowed to adhere overnight at 37 degree with 5% CO2.
On day 0, the source plate was prepared by adding 10 mM compounds and performing 3-fold serial dilutions for a 10-point dose response of each compound. Using a multichannel pipette, 2 μL of the contents of the source plate were stamped into an intermediate plate with 500 μL of RPMI 1640 Media, GlutaMAX Supplement (Life Technologies, 61870127) in each well of a Nunc 96 DeepWell™ plate, non-treated 96 DeepWell plate, 2 mL/well, sterile, natural, 60/cs (Sigma Z717274) and mixed thoroughly. 50 μL from each well of this intermediate plate were added to 4 wells of a 96-well plate with previously seeded Kuramochi cells.
On day 4, the plates were developed using the BrdU ELISA Cell Proliferation Assay according to manufacturer's instructions (Roche, 11647229001). Briefly, BrdU was diluted 1:100 in Gibco®, OptiMEM® and 20 μL/well was added, shaken for 10 minutes at 350 rpm, and then returned to the incubator for 1 hour. Following incubation, the medium was discarded, and the cells were fixed by adding 200 μL of Fix/Denature solution. The anti-BrdU peroxidase antibody was diluted 1:1000 in OptiMEM, added at 100 μL/well, and incubated while shaking (350 rpm) for one hour. Three washes with PBS were performed to remove any unbound antibody, followed by the addition of 100 μL of substrate solution to each well. 25 μL/well of 1M sulfuric acid solution was then added to halt the reaction, and plates were read out using an Envision spectrophotometer (Perkin Elmer) set to read 450 nm absorbance. Background absorbance values from empty wells were subtracted from all samples and then normalized to DMSO treated wells.
On the technique in general: ELISA stands for enzyme-linked immunosorbent assay.

Test [2] addresses T1, CDK2/Cyclin E1 (Homo sapiens, UniProt P24941). Put plainly: CDK2/Cyclin E1 Caliper LabChip EZ Reader mobility shift assay. It counts as biochemical. The following applies: read-out: Caliper Assay (CDK2/CCNE1): IC50. More on the design: purchased Eurofins 14-475. The method in brief: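 Mobility-shift kinase assay: compound titrations preincubated 30 min with enzyme and ATP, reaction started with 5-FAM-QSPKKG-CONH2 peptide. Final 2.5 nM CDK2/Cyclin E1, 100 μM ATP, 1.5 μM peptide, HEPES pH 7.5; stopped with EDTA after 100 min. IC50 from four-parameter fit of normalized conversion ratio.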

In test [3] the target is T1, CDK2/Cyclin E1. Put plainly: HotSpot kinase inhibition assay (radiometric, Histone H1 substrate). The test is classed as biochemical. To be noted: 10 μM ATP, read-out: Kinase Assay (CDK2/CCNE): IC50. On the procedure: Inhibition of CDK2/CCNE1 activities in the presence of compounds of the present disclosure was evaluated using the HotSpot™ assay (proprietary to Reaction Biology Corporation). In the assay, CDK2/Cyclin E1 (Signalchem C29-18G) catalyzed the transfer of radioactive phosphate to amino acid residues of Histone H1 (Sigma, H5505), which are detected radiometrically.
Reactions contained 20 mM HEPES pH 7.5, 10 mM MgCl2, 1 mM EGTA, 2 mM DTT, 0.02% Brij35, 0.02 mg/mL BSA, 0.1 mM Na3VO4, 1% DMSO, 1.5 nM CDK2/Cyclin E1, 10 μM ATP, and 20 μM Histone H1.
CDK2/Cyclin E1 and Histone H1 were mixed in reaction buffer. To this mixture dose titrations of inhibitors in 100% DMSO were added in by acoustic transfer. The compound mixtures were incubated for 20 minutes, then the kinase reactions were initiated by the addition of a mixture of ATP and ^33P ATP for final concentrations of 10 μM total ATP, 20 μM Histone H1, and 1.5 nM CDK2/Cyclin E1. The reactions were carried out for 120 minutes, then spotted on a P81 ion exchange filter paper, and extensively washed with 0.75% phosphoric acid. The resulting radioactive counts were normalized to yield % activity, plotted against compound concentration, and fit to a four-parameter equation to determine the IC50 for each compound.

Some results are limits rather than exact numbers.

With `CNC(=O)[C@@H](NC(=O)[C@@H]1CN(C(=O)c2cncs2)CC12CN(C(=O)[C@H]1CC1(C)C)C2)c1nnc(C2CCCCC2)o1` [I-429], the values for the IC50 (in test [1]; in the test on Kuramochi cells) were over 20 µM and over 10 µM, respectively. As for `CNC(=O)[C@@H](NC(=O)[C@H]1CN(Cc2cnn(C)c2)CC12CN(C(=O)[C@H]1CC1(C)C)C2)[C@@H](C)OCc1ccccc1` [I-47B], the IC50 in the test with Kuramochi cells and on CDK2/Cyclin E1 [2] was over 10 µM throughout. As for `CNC(=O)[C@@H](NC(=O)[C@@H]1CN(C(=O)c2cncs2)CC12CN(CC1CCOCC1)C2)[C@@H](C)OCC12CCC(CC1)OC2` [I-346], the IC50 in test [1] was over 20 µM; in the test with Kuramochi cells, over 10 µM; on CDK2/Cyclin E1 [2], over 10 µM. Consider `COCC1CCCN(C(=O)[C@@H](NC(=O)[C@H]2CN(C(=O)c3cnn(Cc4ccccc4)c3)CC23CN(C(=O)[C@H]2CC2(C)C)C3)[C@@H](C)OCC2CCCCC2)C1` (some centres unmarked) [I-111], for which the results for the IC50 (in test [1]; in the test on Kuramochi cells) were 0.5 to 5 µM and at most 0.5 µM, respectively. Regarding `C[C@@H](OCc1ccccc1)[C@H](NC(=O)C1CN(C(=O)c2cnn(Cc3ccccc3)c2)CC12CN(C(=O)C1CC1(C)C)C2)C(=O)NCCCCCNC(=O)OC(C)(C)C` (some centres unmarked) [I-52], the IC50 (in test [1]; in the test with Kuramochi cells) was 0.5 to 5 µM each time. `C[C@@H](OCC1CCOCC1)[C@@H](COC(F)F)NC(=O)[C@@H]1CN(C(=O)c2cncs2)CC12CN(C(=O)[C@H]1CC1(C)C)C2` [I-441] had an IC50 in test [1] of over 20 µM. For the compound `C[C@@H](OCC1CCC(F)(F)CC1)[C@H](NC(=O)C1CN(C(=O)c2cnn(Cc3ccc(F)cc3)c2)CC12CN(C(=O)C1(C(F)(F)F)CC1)C2)C(=O)N1CCC(F)(F)CC1` (single isomer, unassigned) [I-190B], the IC50 in test [1] was in the range of 5 to 20 µM; in the test on Kuramochi cells, 0.5 to 5 µM. Consider `C[C@@H](OCC1CCOCC1)[C@H](NC(=O)[C@@H]1CN(C(=O)c2cncs2)CC12CN(C(=O)[C@H]1CC1(C)C)C2)C(=O)N1CCC(c2ccncc2)CC1` [I-442], for which, in test [1], the IC50 lay within 5 to 20 µM. With `C[C@@H](OCC1CCC(F)(F)CC1)[C@H](NC(=O)[C@@H]1CN(C(=O)c2cnn(Cc3ccc(F)cc3)c2)CC12CN(C(=O)C1(C(F)(F)F)CC1)C2)C(=O)N1CCC(F)(F)CC1` [I-190A], the IC50 in test [1] was at most 0.5 µM; on CDK2/Cyclin E1 [2] it was 0.01 to 0.1 µM.

For the compound `Cc1ccc(CNC(=O)[C@@H]2CN(C(=O)c3cnn(Cc4ccccc4)c3)CC23CN(C(=O)[C@H]2CC2(C)C)C3)nn1` [I-252], the IC50 at CDK2/Cyclin E1 [3] was at most 1 µM; at CDK2/Cyclin E1 [2], 0.1 to 1 µM.

In the case of `Cc1ccc(CNC(=O)[C@@H]2CN(C(=O)c3cncs3)CC23CN(C(=O)[C@H]2CC2(C)C)C3)nn1` [I-378], the IC50 on CDK2/Cyclin E1 [3] is 10 to 100 µM; at CDK2/Cyclin E1 [2] it was over 10 µM. Regarding `CC(C)O[C@H]1C[C@@H](NC(=O)[C@@H]2CN(C(=O)c3cnn(Cc4ccccc4)c3)CC23CN(C(=O)[C@H]2CC2(C)C)C3)C1` [I-234], the IC50 in the test on Kuramochi cells and on CDK2/Cyclin E1 [2] was over 10 µM throughout. For the compound `C[C@@H](OCc1ccccc1)[C@H](NC(=O)C1CN(C(=O)c2cnn(Cc3ccccc3)c2)CC12CN(C(=O)C1CC1(C)C)C2)C(=O)NCCCCCN` (some centres unmarked) [I-57], in the test on Kuramochi cells, the IC50 was over 10 µM. For the compound `CNC(=O)[C@@H](NC(=O)C1CN(C(=O)c2cnn(Cc3ccncc3)c2)CC12CN(C(=O)C1CC1(C)C)C2)[C@@H](C)OCc1ccccc1` (some centres unmarked) [I-13], the IC50 is at most 1 µM on CDK2/Cyclin E1 [3] and 0.1 to 1 µM at CDK2/Cyclin E1 [2].
